The term half-life denotes how long it takes for the measured level to halve.

Results on three molecules are retold here after US7067257B2, “Thyrotropin-releasing hormone analogues and their therapeutic applications” (University of Florida, priority 2002, dated 2006).

For data set [1], the system named is Swiss Webster mice. As to the kind of experiment: antagonism of barbiturate-induced anesthesia in mice (Example 9). It is filed as in vivo. To be noted: 10 μmole/kg i.v.; sodium pentobarbital 60 mg/kg i.p. after 10 minutes. The protocol: The antagonism of the barbiturate-induced anesthesia in mice was used to assess the increase in the access of the TRH analogues of the present invention to the central nervous system compared to the parent TRH-like tripeptide (pGlu-Glu-Pro-NH2). In this assay related to the analeptic activity of the TRH-like tripeptide, 10 to 18 Swiss Webster mice (30±2 g body weight) were used in each group. The vehicle alone (1.5 ml/kg body weight) or equimolar doses of TRH-like tripeptide as control and the TRH analogues of Formula I (10 μmole/kg body weight) were injected through the tail vein (i.v.). In another group of animals, the TRH-like tripeptide was administered at 10-times higher dose (100 μmol/kg) for comparison. After 10 minutes, each animal received an intraperitoneal (i.p.) injection of sodium pentobarbital at a dose of 60 mg/kg body weight. The sleeping time was recorded from the onset of the loss of righting reflex until the reflex was regained.
Based on measuring analeptic activity in the animal model selected.

Data set [2] has as its system Swiss Webster mice. Kind of data set: duration of analeptic action, antagonism of barbituate-induced anesthesia (Example 6). It is filed as in vivo. As to conditions: 15 μmol/kg i.v.; pentobarbital injection at 60 minutes compared to after 10 minutes. The method, then:
A pharmacological paradigm was used to assess the potency of the subject TRH analogues as central nervous system agents administered to animals in their prodrug forms in vivo. The antagonism on the barbituate-induced anesthesia was explored to survey the extent of activation of cholinergic neurons by the test compounds. Ten to sixteen Swiss Webster mice (30±2 g) were used in each group. Test compounds were dissolved in degassed DMSO. The vehicle alone (1.5 ml/kg body weight) or equimolar doses of TRH as control and prodrugs according to the present invention (15 μmol/kg body weight) were injected through the tail vein. After 10 minutes, each animal received an intraperitoneal (i.p.) injection of sodium pentobarbital at dose 60 mg/kg bodyweight. An increase in the time after which the animals were injected with TRH and a TRH analogue according to the present invention and after the cholinergic challenge was made was increased. The sleeping time was recorded as the time elapsed from the onset of the loss of righting reflex until the reflex was regained.

The conditions of data set [3]: rat, human, in vivo; cited from earlier work.
Data set [4] in a line: in vitro stability in mouse brain homogenate. It is filed as in vitro ADME. To be noted: mouse brain homogenate (20% w/v). The method, then:
In vitro stability studies in mouse brain homogenate (20% w/v) were conducted at 100 μM concentration of TRH analogues of Formula I wherein R^3 is an ester moiety. Analytical reversed-phase gradient HPLC with UV detection (λ=214 nm) was used to monitor the decline in the concentration in the compound added. The half-lives (t1/2) were 20 and 22 minutes for the TRH analogues derived from primary alcohols and 25 minutes and 70 minute for TRH analogues derived from […]. TRH analogues of the subject invention in which R^3 is benzyl ester was discovered to be relatively stable in the tissue (t1/2>2 hours).

Square brackets hold non-standard residues; d marks the D form. Peptide text beside a SMILES is read from it. pGlu = O=C1CC[C@@H](C(=O)O)N1

“[pGlu]-Glu-Pro-NH2 [TRH-like tripeptide]” had a sleeping time in data set [1] of 65±3 minutes SEM. Take `NC(=O)[C@@H]1CCCN1C(=O)[C@H](Cc1cnc[nH]1)NC(=O)[C@@H]1CCC(=O)N1` [TRH, L-pyroglutamyl-L-histidyl-L-prolinamide]: the “loss of central nervous system (analeptic) activity” value in data set [2] was “over 50%”. Also, in data set [3], the biological half-life is reported as 4–6 minutes.

Consider `NC(=O)[C@@H]1CCCN1C(=O)[C@H](CCC(=O)OCc1ccccc1)NC(=O)[C@@H]1CCC(=O)N1` [benzyl ester] (HELM PEPTIDE1{[Glp].E.P.[am]}|CHEM1{[c1ccc(CO[*:1])cc1]}$PEPTIDE1,CHEM1,2:R3-1:R1$$$V2.0), for which, in data set [4], the half-life at 100 μM is more than 2 h.
